Some results are limits rather than exact numbers.

The target of the first assay is T1, human PAH with the R408W mutation (A375 R408W cells) (Homo sapiens, UniProt P00439, R408W).
T1 construct: expressed in transfected cells
T1 sequence (P00439 1-452 R408W): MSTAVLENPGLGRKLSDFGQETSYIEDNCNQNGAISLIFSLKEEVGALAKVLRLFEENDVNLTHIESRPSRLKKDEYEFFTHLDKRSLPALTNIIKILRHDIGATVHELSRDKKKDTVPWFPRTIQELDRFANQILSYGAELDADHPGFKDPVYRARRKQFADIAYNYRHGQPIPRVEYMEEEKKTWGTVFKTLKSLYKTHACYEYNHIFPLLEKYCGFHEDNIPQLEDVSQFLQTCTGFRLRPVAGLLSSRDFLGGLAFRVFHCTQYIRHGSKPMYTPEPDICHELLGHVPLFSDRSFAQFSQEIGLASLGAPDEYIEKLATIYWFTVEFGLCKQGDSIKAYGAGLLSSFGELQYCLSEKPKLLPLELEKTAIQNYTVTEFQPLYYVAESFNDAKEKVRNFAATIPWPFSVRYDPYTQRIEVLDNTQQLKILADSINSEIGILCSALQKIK
Description: Cell Based Phenylalanine Flux Assay. To be noted: A375 R408W cells; 24 hrs with compound, then 20 μM sepiapterin and 800 μM 13C9,15N-Phenylalanine for 4 hours; 13C-Tyrosine by LC-MS; average where tested multiple times. An outline of the steps: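 LC-MS quantitation of 13C-tyrosine in media gave AC50 values. Stable A375 R408W PAH cells were preincubated 24 h with compound, then fed 800 μM labelled Phe plus 20 μM sepiapterin for 4 h. Dose curves were 10-point, tested in duplicate, averaged over repeat runs.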
A word on the AC50: it is the concentration giving half of the maximal activity seen. Turning to `Cn1cc(-c2nnc(C(=O)N3CCc4[nH]cnc4[C@@H]3c3nc4ccccc4o3)o2)cn1` [Example 582, (R)-(4-(benzo[d]oxazol-2-yl)-6,7-dihydro-1H-imidazo[4,5-c]pyridin-5(4H)-yl)(5-(1-methyl-1H-pyrazol-4-yl)-1,3,4-oxadiazol-2-yl)methanone], the AC50 was 1000 to 5000 nM.
Same read-out and setting: in the case of `CC(F)(F)c1ncc(C(=O)N2CCc3[nH]cnc3[C@H]2c2nc3cc(F)ccc3o2)s1` [Example 35, (S)-(2-(1,1-difluoroethyl)thiazol-5-yl)(4-(5-fluorobenzo[d]oxazol-2-yl)-6,7-dihydro-1H-imidazo[4,5-c]pyridin-5(4H)-yl)methanone] it was 500 to 1000 nM.
The same measure, in the same setting: as for `COc1cccc2nc([C@@H]3c4nc[nH]c4CCN3C(=O)c3cc(C(F)F)nn3C)oc12` [Example 777, (S)-(3-(difluoromethyl)-1-methyl-1H-pyrazol-5-yl)(4-(7-methoxybenzo[d]oxazol-2-yl)-6,7-dihydro-1H-imidazo[4,5-c]pyridin-5(4H)-yl)methanone], the figure is not above 500 nM; as for `CN1CCN(c2nc(C(F)F)c(C(=O)N3CCc4[nH]cnc4[C@H]3c3nc4cccc(F)c4o3)o2)CC1` [Example 617, (S)-(4-(difluoromethyl)-2-(4-methylpiperazin-1-yl)oxazol-5-yl)(4-(7-fluorobenzo[d]oxazol-2-yl)-6,7-dihydro-1H-imidazo[4,5-c]pyridin-5(4H)-yl)methanone], not above 500 nM; as for `O=C(c1ocnc1C(F)F)N1CCc2[nH]cnc2[C@@H]1c1nc2cc(Cl)ccc2o1` [Example 377, (R)-(4-(5-chlorobenzo[d]oxazol-2-yl)-6,7-dihydro-1H-imidazo[4,5-c]pyridin-5(4H)-yl)(4-(difluoromethyl)oxazol-5-yl)methanone], 500 to 1000 nM.
For the compound `Cc1ccc2oc([C@H]3c4nc[nH]c4CCN3C(=O)c3oc(-c4cncn4C)nc3C(F)F)nc2c1` [Example 757, (R)-(4-(difluoromethyl)-2-(1-methyl-1H-imidazol-5-yl)oxazol-5-yl)(4-(5-methylbenzo[d]oxazol-2-yl)-6,7-dihydro-1H-imidazo[4,5-c]pyridin-5(4H)-yl)methanone], the AC50 is 1000 to 5000 nM.
The same measure, in the same setting: as for `O=C(c1ccnn1C(F)F)N1CCc2[nH]cnc2[C@@H]1c1nc2cc(F)ccc2o1` [Example 94, (R)-(1-(difluoromethyl)-1H-pyrazol-5-yl)(4-(5-fluorobenzo[d]oxazol-2-yl)-6,7-dihydro-1H-imidazo[4,5-c]pyridin-5(4H)-yl)methanone], the figure is 1000 to 5000 nM; as for `O=C(c1oc(-c2cccnc2)nc1C(F)F)N1CCc2[nH]cnc2[C@H]1c1nc2cccc(F)c2o1` [Example 590, (S)-(4-(difluoromethyl)-2-(pyridin-3-yl)oxazol-5-yl)(4-(7-fluorobenzo[d]oxazol-2-yl)-6,7-dihydro-1H-imidazo[4,5-c]pyridin-5(4H)-yl)methanone], not above 500 nM; as for `Cc1ccc2nc([C@H]3c4nc[nH]c4CCN3C(=O)c3nnc(-c4ncccc4F)o3)oc2c1` [Example 680, (R)-(5-(3-fluoropyridin-2-yl)-1,3,4-oxadiazol-2-yl)(4-(6-methylbenzo[d]oxazol-2-yl)-6,7-dihydro-1H-imidazo[4,5-c]pyridin-5(4H)-yl)methanone], 1000 to 5000 nM.
Still for that read-out and setting: as for `Cn1nc(C(F)F)cc1C(=O)N1CCc2[nH]cnc2[C@@H]1c1nc2ccccc2o1` [Example 732, (R)-(4-(benzo[d]oxazol-2-yl)-6,7-dihydro-1H-imidazo[4,5-c]pyridin-5(4H)-yl)(3-(difluoromethyl)-1-methyl-1H-pyrazol-5-yl)methanone], the figure is not below 5000 nM; as for `O=C(c1oc(N2CCC(F)CC2)nc1C(F)F)N1CCc2[nH]cnc2[C@@H]1c1nc2cccc(F)c2o1` [Example 675, (R)-(4-(difluoromethyl)-2-(4-fluoropiperidin-1-yl)oxazol-5-yl)(4-(7-fluorobenzo[d]oxazol-2-yl)-6,7-dihydro-1H-imidazo[4,5-c]pyridin-5(4H)-yl)methanone], not above 500 nM; as for `O=C(c1oc(-c2ccccn2)nc1C(F)F)N1CCc2[nH]cnc2[C@@H]1c1nc2ccccc2o1` [Example 739, (R)-(4-(benzo[d]oxazol-2-yl)-6,7-dihydro-1H-imidazo[4,5-c]pyridin-5(4H)-yl)(4-(difluoromethyl)-2-(pyridin-2-yl)oxazol-5-yl)methanone], 500 to 1000 nM.
On to `C[C@@H](O)c1nc(C(F)F)c(C(=O)N2CCc3[nH]cnc3[C@H]2c2nc3ccc(F)cc3o2)o1` [Example 239, (4-(difluoromethyl)-2-((R)-1-hydroxyethyl)oxazol-5-yl)((S)-4-(6-fluorobenzo[d]oxazol-2-yl)-6,7-dihydro-1H-imidazo[4,5-c]pyridin-5(4H)-yl)methanone], for which the AC50 was 500 to 1000 nM.
Still for that read-out and setting: in the case of `Cn1cc(-c2nnc(C(=O)N3CCc4[nH]cnc4[C@@H]3c3nc4ccc(F)c(F)c4o3)o2)cn1` [Example 516, (R)-(4-(6,7-difluorobenzo[d]oxazol-2-yl)-6,7-dihydro-1H-imidazo[4,5-c]pyridin-5(4H)-yl)(5-(1-methyl-1H-pyrazol-4-yl)-1,3,4-oxadiazol-2-yl)methanone] it was 1000 to 5000 nM.
Consider `Cc1cc(F)cc2nc([C@H]3c4nc[nH]c4CCN3C(=O)c3oc(C(C)(C)O)nc3C(F)F)oc12` [Example 656, (R)-(4-(difluoromethyl)-2-(2-hydroxypropan-2-yl)oxazol-5-yl)(4-(5-fluoro-7-methylbenzo[d]oxazol-2-yl)-6,7-dihydro-1H-imidazo[4,5-c]pyridin-5(4H)-yl)methanone], for which the AC50 fell in the range of 1000 to 5000 nM.
Still for that read-out and setting: in the case of `O=C(c1oc(-c2ccncn2)nc1C(F)F)N1CCc2[nH]cnc2[C@H]1c1nc2cccc(F)c2o1` [Example 773, (S)-(4-(difluoromethyl)-2-(pyrimidin-4-yl)oxazol-5-yl)(4-(7-fluorobenzo[d]oxazol-2-yl)-6,7-dihydro-1H-imidazo[4,5-c]pyridin-5(4H)-yl)methanone] it was not above 500 nM; in that of `COc1ccc2oc([C@H]3c4nc[nH]c4CCN3C(=O)c3nnc(-c4cnn(C)c4)o3)nc2c1` [Example 554, (R)-(4-(5-methoxybenzo[d]oxazol-2-yl)-6,7-dihydro-1H-imidazo[4,5-c]pyridin-5(4H)-yl)(5-(1-methyl-1H-pyrazol-4-yl)-1,3,4-oxadiazol-2-yl)methanone], 1000 to 5000 nM.
Same read-out and setting: as for `O=C(c1cnco1)N1CCc2[nH]cnc2[C@@H]1c1nc2cc(F)cc(F)c2o1` [Example 576, (R)-(4-(5,7-difluorobenzo[d]oxazol-2-yl)-6,7-dihydro-1H-imidazo[4,5-c]pyridin-5(4H)-yl)(oxazol-5-yl)methanone], the figure is 1000 to 5000 nM; as for `CC(C)(O)c1nc(C(F)F)c(C(=O)N2CCc3[nH]cnc3[C@H]2c2nc3cc(C(F)(F)F)ccc3o2)o1` [Example 327, (S)-(4-(difluoromethyl)-2-(2-hydroxypropan-2-yl)oxazol-5-yl)(4-(5-(trifluoromethyl)benzo[d]oxazol-2-yl)-6,7-dihydro-1H-imidazo[4,5-c]pyridin-5(4H)-yl)methanone], not above 500 nM; as for `C[C@@H](O)c1nc(C(F)F)c(C(=O)N2CCc3[nH]cnc3[C@@H]2c2nc3cccc(F)c3o2)o1` [Example 246, (4-(difluoromethyl)-2-((R)-1-hydroxyethyl)oxazol-5-yl)((R)-4-(7-fluorobenzo[d]oxazol-2-yl)-6,7-dihydro-1H-imidazo[4,5-c]pyridin-5(4H)-yl)methanone], not above 500 nM.
The same measure, in the same setting: in the case of `O=C(c1cnn(-c2ccccn2)c1)N1CCc2[nH]cnc2[C@H]1c1nc2cc(F)ccc2o1` [Example 879, (S)-(4-(5-fluorobenzo[d]oxazol-2-yl)-6,7-dihydro-1H-imidazo[4,5-c]pyridin-5(4H)-yl)(1-(pyridin-2-yl)-1H-pyrazol-4-yl)methanone] it was 1000 to 5000 nM; in that of `O=C(CCc1nccs1)N1CCc2[nH]cnc2[C@@H]1c1nc2cccc(F)c2o1` [Example 386, 1-[(4R)-4-(7-fluoro-1,3-benzoxazol-2-yl)-1,4,6,7-tetrahydroimidazo[4,5-c]pyridin-5-yl]-3-thiazol-2-yl-propan-1-one], not below 5000 nM.

Still in this assay, the particulars now being: A375 cells expressing R408W PAH; 24 hrs with compound, then 20 μM sepiapterin and 800 μM 13C9,15N-Phenylalanine for 4 hours; 13C-Tyrosine by LC-MS; average where tested multiple times.
With `COCc1nnc(C(=O)N2CCc3[nH]cnc3C2c2nc3cc(F)ccc3o2)o1` (stereo not shown), the AC50 is not below 5000 nM.
Still for that read-out and setting: as for `O=C(c1cnn2cc(N3CCOCC3)ccc12)N1CCc2[nH]cnc2C1c1nc2cc(F)ccc2o1` (stereo not shown), the figure is 1000 to 5000 nM; as for `COCCNc1nnc(C(=O)N2CCc3[nH]cnc3C2c2nc3cc(F)ccc3o2)o1` (stereo not shown), not below 5000 nM.
The same measure, in the same setting: in the case of `Cc1ccc2nc(C3c4nc[nH]c4CCN3C(=O)c3ocnc3C#N)oc2c1` (stereo not shown) it was not below 5000 nM; in that of `CC(C)(O)c1cc(C(=O)N2CCc3[nH]cnc3C2c2nc3cccc(F)c3o2)no1` (stereo not shown), 1000 to 5000 nM.
The same measure, in the same setting: in the case of `CC1CN(C(=O)c2oc(C(C)(C)O)nc2C(F)F)C(c2nc3cc(F)ccc3o2)c2nc[nH]c21` (stereo not shown) it was 1000 to 5000 nM.
As for `COc1cccc2nc(C3c4nc[nH]c4CCN3C(=O)c3cc(C(C)(C)C)nn3C)oc12` (stereo not shown), the AC50 was not below 5000 nM.
Turning to `Cc1ncoc1C(=O)N1CCc2[nH]cnc2C1c1nc2cc(F)ccc2o1` (stereo not shown), the half-maximal activity concentration (AC50) was not below 5000 nM.
Same read-out and setting: as for `O=C(c1cnn2cc(N3CCC(O)CC3)ccc12)N1CCc2[nH]cnc2C1c1nc2c(F)c(F)ccc2o1` (stereo not shown), the figure is not below 5000 nM.

(Values after patent US20250171437A1 (Agios Pharmaceuticals,Inc., priority 2022, published 2025).)
